# Measured values from PubChem BioAssay (NCI).
#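 Five concentrations, 48 hours, 96-well plates. TGI marks complete inhibition of growth.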
# Experiments:
# Assay in all cases: NCI tumour cell line growth inhibition, 48 h
# HOP-62 NSCLC = test system: HOP-62 NSCLC
# ACHN renal = test system: ACHN renal
# UACC-257 melanoma = test system: UACC-257 melanoma
# COLO 205 colon = test system: COLO 205 colon
# A498 renal = test system: A498 renal
# SK-MEL-5 melanoma = test system: SK-MEL-5 melanoma
# IGROV1 ovarian = test system: IGROV1 ovarian
# RPMI-8226 leukemia = test system: RPMI-8226 leukemia
# RXF 393 renal = test system: RXF 393 renal
# KM12 colon = test system: KM12 colon
# SK-OV-3 ovarian = test system: SK-OV-3 ovarian
# NCI-H522 lung = test system: NCI-H522 lung
# LXFL 529 NSCLC = test system: LXFL 529 NSCLC
# OVCAR-4 ovarian = test system: OVCAR-4 ovarian
# NCI-H23 lung = test system: NCI-H23 lung
# DMS 114 small cell lung = test system: DMS 114 small cell lung
# UO-31 renal = test system: UO-31 renal
# A549 NSCLC = test system: A549 NSCLC
# CAKI-1 renal = test system: CAKI-1 renal
# SF-268 CNS = test system: SF-268 CNS
# SF-295 CNS = test system: SF-295 CNS
# MALME-3M melanoma = test system: MALME-3M melanoma
# OVCAR-8 ovarian = test system: OVCAR-8 ovarian
# SR leukemia = test system: SR leukemia
# HOP-18 NSCLC = test system: HOP-18 NSCLC
# HCT-116 colon = test system: HCT-116 colon
# M19-MEL melanoma = test system: M19-MEL melanoma
# SNB-75 CNS = test system: SNB-75 CNS
# 786-0 renal = test system: 786-0 renal
# SK-MEL-2 melanoma = test system: SK-MEL-2 melanoma
# HCT-15 colon = test system: HCT-15 colon
# OVCAR-5 ovarian = test system: OVCAR-5 ovarian
# HT29 colon = test system: HT29 colon
# SW-620 colon = test system: SW-620 colon
# DMS 273 small cell lung = test system: DMS 273 small cell lung
# TK-10 renal = test system: TK-10 renal
# CCRF-CEM leukemia = test system: CCRF-CEM leukemia
# K-562 leukemia = test system: K-562 leukemia
# SN12C renal = test system: SN12C renal
# NCI-H226 lung = test system: NCI-H226 lung
# SK-MEL-28 melanoma = test system: SK-MEL-28 melanoma
# NCI-H460 lung = test system: NCI-H460 lung
# DLD-1 colon = test system: DLD-1 colon
# MOLT-4 leukemia = test system: MOLT-4 leukemia
# M14 melanoma = test system: M14 melanoma
# UACC-62 melanoma = test system: UACC-62 melanoma
# SF-539 CNS = test system: SF-539 CNS
# LOX IMVI melanoma = test system: LOX IMVI melanoma
# U251 CNS = test system: U251 CNS
# HL-60(TB) leukemia = test system: HL-60(TB) leukemia
# HOP-92 NSCLC = test system: HOP-92 NSCLC
# SNB-78 CNS = test system: SNB-78 CNS
# SNB-19 CNS = test system: SNB-19 CNS
# EKVX NSCLC = test system: EKVX NSCLC
# HCC-2998 colon = test system: HCC-2998 colon
# OVCAR-3 ovarian = test system: OVCAR-3 ovarian
# KM20L2 colon = test system: KM20L2 colon
# XF 498 CNS = test system: XF 498 CNS
smiles,measurement,setting,value
O=c1c2ccccc2nc(-c2ccccc2)n1NC(=S)Nc1ccc(Cl)cc1,TGI,HOP-62 NSCLC,> 100 µM
same,TGI,ACHN renal,> 100 µM
same,TGI,UACC-257 melanoma,> 100 µM
same,TGI,COLO 205 colon,> 100 µM
same,TGI,A498 renal,> 100 µM
same,TGI,SK-MEL-5 melanoma,> 100 µM
same,TGI,IGROV1 ovarian,> 100 µM
same,TGI,RPMI-8226 leukemia,> 100 µM
same,TGI,RXF 393 renal,> 100 µM
same,TGI,KM12 colon,> 100 µM
same,TGI,SK-OV-3 ovarian,> 100 µM
same,TGI,NCI-H522 lung,> 100 µM
same,TGI,LXFL 529 NSCLC,> 100 µM
same,TGI,OVCAR-4 ovarian,> 100 µM
same,TGI,NCI-H23 lung,> 100 µM
same,TGI,DMS 114 small cell lung,> 100 µM
same,TGI,UO-31 renal,> 100 µM
same,TGI,A549 NSCLC,> 100 µM
same,TGI,CAKI-1 renal,> 100 µM
same,TGI,SF-268 CNS,> 100 µM
same,TGI,SF-295 CNS,> 100 µM
same,TGI,MALME-3M melanoma,> 100 µM
same,TGI,OVCAR-8 ovarian,> 100 µM
same,TGI,SR leukemia,> 100 µM
same,TGI,HOP-18 NSCLC,> 100 µM
same,TGI,HCT-116 colon,> 100 µM
same,TGI,M19-MEL melanoma,> 100 µM
same,TGI,SNB-75 CNS,> 100 µM
same,TGI,786-0 renal,> 100 µM
same,TGI,SK-MEL-2 melanoma,> 100 µM
same,TGI,HCT-15 colon,> 100 µM
same,TGI,OVCAR-5 ovarian,> 100 µM
same,TGI,HT29 colon,> 100 µM
same,TGI,SW-620 colon,> 100 µM
same,TGI,DMS 273 small cell lung,> 100 µM
same,TGI,TK-10 renal,> 100 µM
same,TGI,CCRF-CEM leukemia,> 100 µM
same,TGI,K-562 leukemia,> 100 µM
same,TGI,SN12C renal,> 100 µM
same,TGI,NCI-H226 lung,> 100 µM
same,TGI,SK-MEL-28 melanoma,91.6 µM
same,TGI,NCI-H460 lung,> 100 µM
same,TGI,DLD-1 colon,> 100 µM
same,TGI,MOLT-4 leukemia,> 100 µM
same,TGI,M14 melanoma,> 100 µM
same,TGI,UACC-62 melanoma,> 100 µM
same,TGI,SF-539 CNS,> 100 µM
same,TGI,LOX IMVI melanoma,> 100 µM
same,TGI,U251 CNS,> 100 µM
same,TGI,HL-60(TB) leukemia,> 100 µM
same,TGI,HOP-92 NSCLC,> 100 µM
CSc1nc(NC2OC(COC(C)=O)C(OC(C)=O)C(OC(C)=O)C2OC(C)=O)c(N=C(C)C(C)=O)c(=O)[nH]1 (centres undefined),TGI,HOP-62 NSCLC,> 100 µM
same,TGI,UACC-257 melanoma,> 100 µM
same,TGI,COLO 205 colon,> 100 µM
same,TGI,SK-MEL-5 melanoma,> 100 µM
same,TGI,IGROV1 ovarian,> 100 µM
same,TGI,RPMI-8226 leukemia,> 100 µM
same,TGI,KM12 colon,> 100 µM
same,TGI,SNB-78 CNS,> 100 µM
same,TGI,SK-OV-3 ovarian,> 100 µM
same,TGI,SNB-19 CNS,> 100 µM
same,TGI,OVCAR-4 ovarian,> 100 µM
same,TGI,DMS 114 small cell lung,> 100 µM
same,TGI,UO-31 renal,> 100 µM
same,TGI,A549 NSCLC,> 100 µM
same,TGI,CAKI-1 renal,> 100 µM
same,TGI,SF-295 CNS,> 100 µM
same,TGI,MALME-3M melanoma,> 100 µM
same,TGI,OVCAR-8 ovarian,> 100 µM
same,TGI,EKVX NSCLC,> 100 µM
same,TGI,HOP-18 NSCLC,> 100 µM
same,TGI,HCT-116 colon,> 100 µM
same,TGI,M19-MEL melanoma,> 100 µM
same,TGI,786-0 renal,> 100 µM
same,TGI,SK-MEL-2 melanoma,> 100 µM
same,TGI,HT29 colon,> 100 µM
same,TGI,SW-620 colon,> 100 µM
same,TGI,TK-10 renal,> 100 µM
same,TGI,HCC-2998 colon,> 100 µM
same,TGI,CCRF-CEM leukemia,> 100 µM
same,TGI,K-562 leukemia,> 100 µM
same,TGI,NCI-H226 lung,> 100 µM
same,TGI,OVCAR-3 ovarian,> 100 µM
same,TGI,DLD-1 colon,> 100 µM
same,TGI,MOLT-4 leukemia,> 100 µM
same,TGI,M14 melanoma,> 100 µM
same,TGI,UACC-62 melanoma,> 100 µM
same,TGI,SF-539 CNS,> 100 µM
same,TGI,HL-60(TB) leukemia,> 100 µM
same,TGI,HOP-92 NSCLC,> 100 µM
O=C(N/C(=C\c1ccc(Br)cc1)c1nc2ccccc2[nH]1)c1ccccc1,TGI,COLO 205 colon,41.1 µM
same,TGI,SK-MEL-5 melanoma,37 µM
same,TGI,IGROV1 ovarian,66.6 µM
same,TGI,RXF 393 renal,30.4 µM
same,TGI,KM12 colon,33.5 µM
same,TGI,SNB-78 CNS,59.6 µM
same,TGI,SK-OV-3 ovarian,86.3 µM
same,TGI,NCI-H522 lung,29.8 µM
same,TGI,LXFL 529 NSCLC,30.9 µM
same,TGI,SNB-19 CNS,41.6 µM
same,TGI,OVCAR-4 ovarian,36.5 µM
same,TGI,NCI-H23 lung,36 µM
same,TGI,UO-31 renal,33.7 µM
same,TGI,KM20L2 colon,29.8 µM
same,TGI,CAKI-1 renal,65.1 µM
same,TGI,SF-295 CNS,64.5 µM
same,TGI,MALME-3M melanoma,45.6 µM
same,TGI,OVCAR-8 ovarian,40 µM
same,TGI,XF 498 CNS,34.2 µM
same,TGI,SR leukemia,50.9 µM
same,TGI,SK-MEL-2 melanoma,30.9 µM
same,TGI,HCT-15 colon,39.4 µM
same,TGI,OVCAR-5 ovarian,52 µM
same,TGI,HT29 colon,36.4 µM
same,TGI,SW-620 colon,29.6 µM
same,TGI,DMS 273 small cell lung,58.9 µM
same,TGI,TK-10 renal,84.7 µM
same,TGI,HCC-2998 colon,30.9 µM
same,TGI,CCRF-CEM leukemia,70.2 µM
same,TGI,K-562 leukemia,52.6 µM
same,TGI,SN12C renal,32.7 µM
same,TGI,OVCAR-3 ovarian,46.2 µM
same,TGI,SK-MEL-28 melanoma,30.3 µM
same,TGI,DLD-1 colon,59.8 µM
same,TGI,MOLT-4 leukemia,67.4 µM
same,TGI,M14 melanoma,32.8 µM
same,TGI,UACC-62 melanoma,43.6 µM
same,TGI,U251 CNS,33.5 µM
same,TGI,HOP-92 NSCLC,24.7 µM
